Target: T1, horseradish peroxidase (HRP) tagged delF508-CFTR (Homo sapiens, UniProt P13569, DEL508-508)
T1 construct: expressed in transfected cells
Assay: Measurement of delF508-CFTR-HRP surface expression in CFBE41o- cells;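 for DelF508-CFTR-HRP Amax %: percent efficacy relative to reference corrector lumacaftor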
Type: cell-based
Settings: delF508-CFTR-HRP surface expression, CFBE41o- cells; for Emax: read-out: DelF508-CFTR-HRP Amax %; for EC50: read-out: DelF508-CFTR-HRP EC50
From the text: Measurement of delF508-CFTR-HRP Surface Expression in CFBE41o-Cells
This assay quantifies the cell surface expressions of the mutant CFTR channel using an extracellular HRP tag.
A cellular assay was developed to measure surface expression of horseradish peroxidase (HRP) tagged delF508-CFTR in the human bronchial epithelial immortalized CFBE41o-cell line (Phuan, P. W., et al, (2014) Molecular Pharmacology 86:42-51). Specifically, the HRP sequence was inserted into the fourth extracellular loop of delF508-CFTR and stably expressed in CFBE41o-cells. Cells were seeded in 384 well plate at a density of 5000 cells/well and incubated at 37° C. for 12 to 24 hours in medium (Gibco MEM #11095, 10% FBS, 10 mM HEPES, […], 200 μg/mL G418, 3 μg/mL Puromycin). The delF508-CFTR-HRP expression was induced with 500 ng/mL doxycycline (Sigma D-9891, dissolved in H2O and sterile filtered) in medium and the cells were incubated at 37° C. for 48h. Old medium was removed and fresh medium was added containing 500 ng/mL doxycycline and unknown test compound at required test concentration in DMSO, not exceeding 0.5% final DMSO concentration. The highest concentration tested was 10 μM with a 10-point concentration response curve using a 3-fold dilution. After addition of compounds, the cells were incubated for 24h at 37° C. On the final day, cells were washed four times in PBS containing 1 mM MgCl2 and 0.1 mM CaCl2. HRP-Substrate (SuperSignal ELISA Pico, Fisher #37069) 20 μl/well was added and the luminescence signal was determined (Viewlux, Perkin Elmer). Light was emitted upon addition of exogenous HRP-Substrate only when delF508-CFTR-HRP reached the cell surface and the HRP tag was accessible to the HRP-Substrate (note: HRP-Substrate cannot cross the lipid bilayer to reach delF508-CFTR-HRP misfolded within the cell).
The median activity for the lowest concentration of the compounds on each assay plate was calculated and this value was used to normalize the signal for each well on the respective plate. Three replicates at each concentrations for every compound were run to determine one EC50. The median value was determined and used to calculate compound activities as described below. Effective half maximal values (EC50) were calculated for each compound by performing logistic regression on measured dose-response data points using the equation:
[formula] where “Y” is the observed activity, “Bottom” is the lowest observed value, “Top” is the highest observed value, and the “Hill coefficient” gives the largest absolute value of the slope. The curve fitting is carried out by a curve fitting program implemented at GNF using Matlab (Mathworks).
The dose response curves also were used to calculate Fold Change (FC) using the equation: […]
Compound efficacy relative to the reference compound 3-(6-(1-(2,2-difluorobenzo[d][1,3]dioxol-5-yl)cyclopropane-1-carboxamido)-3-methylpyridin-2-yl)benzoic acid was determined using the following formula: […]

T1 sequence (P13569 with tags, fused parts or gaps DEL508-508): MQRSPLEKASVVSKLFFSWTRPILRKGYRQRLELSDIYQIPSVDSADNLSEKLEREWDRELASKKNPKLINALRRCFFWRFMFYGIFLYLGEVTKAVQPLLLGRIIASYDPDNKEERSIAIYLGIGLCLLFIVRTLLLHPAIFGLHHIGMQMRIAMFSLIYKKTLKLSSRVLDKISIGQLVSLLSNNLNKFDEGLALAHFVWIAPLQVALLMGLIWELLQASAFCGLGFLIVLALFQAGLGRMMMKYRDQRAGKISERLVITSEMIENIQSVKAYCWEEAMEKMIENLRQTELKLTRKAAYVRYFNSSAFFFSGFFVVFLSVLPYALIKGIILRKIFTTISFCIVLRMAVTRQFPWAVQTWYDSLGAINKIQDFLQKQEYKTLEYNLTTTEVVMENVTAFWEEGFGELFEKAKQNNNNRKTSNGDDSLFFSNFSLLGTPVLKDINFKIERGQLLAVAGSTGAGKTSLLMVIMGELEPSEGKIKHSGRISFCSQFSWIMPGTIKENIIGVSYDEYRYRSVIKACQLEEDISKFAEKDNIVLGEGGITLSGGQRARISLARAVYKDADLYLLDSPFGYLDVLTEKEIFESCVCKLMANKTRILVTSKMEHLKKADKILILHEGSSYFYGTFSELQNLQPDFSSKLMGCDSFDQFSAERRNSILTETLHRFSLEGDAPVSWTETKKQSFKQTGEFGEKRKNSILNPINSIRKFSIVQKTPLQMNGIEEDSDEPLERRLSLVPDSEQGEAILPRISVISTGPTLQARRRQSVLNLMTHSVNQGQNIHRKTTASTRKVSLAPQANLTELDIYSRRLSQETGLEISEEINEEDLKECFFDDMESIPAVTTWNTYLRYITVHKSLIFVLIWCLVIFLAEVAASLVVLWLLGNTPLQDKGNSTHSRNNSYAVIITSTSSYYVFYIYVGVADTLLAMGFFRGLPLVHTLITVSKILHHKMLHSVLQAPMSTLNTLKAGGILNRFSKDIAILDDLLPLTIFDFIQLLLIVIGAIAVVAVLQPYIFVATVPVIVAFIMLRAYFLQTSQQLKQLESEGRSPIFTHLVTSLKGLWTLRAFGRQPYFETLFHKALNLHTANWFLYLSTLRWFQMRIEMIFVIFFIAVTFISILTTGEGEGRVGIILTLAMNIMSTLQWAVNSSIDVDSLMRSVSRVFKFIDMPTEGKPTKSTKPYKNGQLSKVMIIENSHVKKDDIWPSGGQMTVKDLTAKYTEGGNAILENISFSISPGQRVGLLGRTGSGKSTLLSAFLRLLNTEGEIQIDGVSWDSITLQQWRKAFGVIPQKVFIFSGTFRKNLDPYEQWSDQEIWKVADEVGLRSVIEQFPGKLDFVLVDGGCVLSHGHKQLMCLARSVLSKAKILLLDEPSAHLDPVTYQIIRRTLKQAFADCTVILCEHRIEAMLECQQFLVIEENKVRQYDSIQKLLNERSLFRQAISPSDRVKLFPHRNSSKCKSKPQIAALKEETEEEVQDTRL

Compound | Emax [%] | EC50 [nM]
Cc1ccccc1-c1nc(NS(=O)(=O)c2cccc(N)n2)cc(C(F)(F)F)c1Cl [Example 22, 6-amino-N-(5-chloro-6-(o-tolyl)-4-(trifluoromethyl)pyridin-2-yl)pyridine-2-sulfonamide] | 490 | 1620
Cc1ccccc1-c1nc(NS(=O)(=O)c2cccc(N)n2)ccc1Br [Example 23, 6-amino-N-(5-bromo-6-(o-tolyl)pyridin-2-yl)pyridine-2-sulfonamide] | 486 | 1880
Nc1cccc(S(=O)(=O)Nc2ccc(Cl)c(-c3ccccc3Cl)n2)n1 [Example 24, 6-amino-N-(5-chloro-6-(2-chlorophenyl)pyridin-2-yl)pyridine-2-sulfonamide] | 485 | 1460
[2H]C([2H])([2H])c1ccccc1-c1nc(NS(=O)(=O)c2ccnc(N)c2)ccc1Cl [Example 26, 2-amino-N-(5-chloro-6-(2-(methyl-d3)phenyl)pyridin-2-yl)pyridine-4-sulfonamide] | 450 | 2200
Nc1cccc(S(=O)(=O)Nc2ccc(Cl)c(-c3ccc(F)cc3C3CC3)n2)n1 [Example 27, 6-amino-N-(5-chloro-6-(2-cyclopropyl-4-fluorophenyl)pyridin-2-yl)pyridine-2-sulfonamide] | 430 | 1720
CCc1ccccc1-c1nc(NS(=O)(=O)c2cccc(N)n2)ccc1Cl [Example 29, 6-amino-N-(5-chloro-6-(2-ethylphenyl)pyridin-2-yl)pyridine-2-sulfonamide] | 429 | 1080
Cc1cc(F)cc(C)c1-c1nc(NS(=O)(=O)c2cccc(N)n2)ccc1Cl [Example 30, 6-amino-N-(5-chloro-6-(4-fluoro-2,6-dimethylphenyl)pyridin-2-yl)pyridine-2-sulfonamide] | 421 | 1700
Cc1cccc(F)c1-c1nc(NS(=O)(=O)c2cccc(N)n2)ccc1Cl [Example 31, 6-amino-N-(5-chloro-6-(2-fluoro-6-methylphenyl)pyridin-2-yl)pyridine-2-sulfonamide] | 418 | 1320
Cc1cc(C)c(-c2nc(NS(=O)(=O)c3cccc(N)n3)ccc2Cl)c(C)c1 [Example 32, 6-amino-N-(5-chloro-6-mesitylpyridin-2-yl)pyridine-2-sulfonamide] | 412 | 1640
Cc1ccccc1-c1nc(NS(=O)(=O)c2nc(N)ccc2F)ccc1Cl [Example 33, 6-amino-N-(5-chloro-6-(o-tolyl)pyridin-2-yl)-3-fluoropyridine-2-sulfonamide] | 404 | 2200
CC(C)c1ccccc1-c1nc(NS(=O)(=O)c2cccc(N)n2)ccc1F [Example 35, 6-amino-N-(5-fluoro-6-(2-isopropylphenyl)pyridin-2-yl)pyridine-2-sulfonamide] | 398 | 2110
Cc1cc(F)ccc1-c1nc(NS(=O)(=O)c2cccc(N)n2)ccc1Cl [Example 37, 6-amino-N-(5-chloro-6-(4-fluoro-2-methylphenyl)pyridin-2-yl)pyridine-2-sulfonamide] | 386 | 2290
Cc1ccc(Cl)c(-c2nc(NS(=O)(=O)c3cccc(N)n3)ccc2Cl)c1F [Example 38, 6-amino-N-(5-chloro-6-(6-chloro-2-fluoro-3-methylphenyl)pyridin-2-yl)pyridine-2-sulfonamide] | 376 | 2000
Nc1cccc(S(=O)(=O)Nc2ccc(Cl)c(-c3c(F)cccc3Cl)n2)n1 [Example 39, 6-amino-N-(5-chloro-6-(2-chloro-6-fluorophenyl)pyridin-2-yl)pyridine-2-sulfonamide] | 374 | 1900
Cc1ccccc1-c1nc(NS(=O)(=O)c2ccc(N)nc2)ccc1Cl [Example 40, 6-amino-N-(5-chloro-6-(o-tolyl)pyridin-2-yl)pyridine-3-sulfonamide] | 373 | 2360
CC(C)c1ccccc1-c1nc(NS(=O)(=O)c2ccc(N)nc2)ccc1Cl [Example 45, 6-amino-N-(5-chloro-6-(2-isopropylphenyl)pyridin-2-yl)pyridine-3-sulfonamide] | 345 | 1240
Cc1ccc(F)cc1-c1nc(NS(=O)(=O)c2ccnc(N)c2)ccc1Cl [Example 46, 2-amino-N-(5-chloro-6-(5-fluoro-2-methylphenyl)pyridin-2-yl)pyridine-4-sulfonamide] | 339 | 1950
Cc1cccc(C)c1-c1nc(NS(=O)(=O)c2ccc(N)nc2)ccc1Cl [Example 47, 6-amino-N-(5-chloro-6-(2,6-dimethylphenyl)pyridin-2-yl)pyridine-3-sulfonamide] | 335 | 1400
CC(F)(F)c1ccccc1-c1nc(NS(=O)(=O)c2cccc(N)n2)ccc1Cl [Example 48, 6-amino-N-(5-chloro-6-(2-(1,1-difluoroethyl)phenyl)pyridin-2-yl)pyridine-2-sulfonamide] | 334 | 2330
Cc1ccc(C(F)(F)F)cc1-c1nc(NS(=O)(=O)c2ccnc(N)c2)ccc1Cl [Example 49, 2-amino-N-(5-chloro-6-(2-methyl-5-(trifluoromethyl)phenyl)pyridin-2-yl)pyridine-4-sulfonamide] | 333 | 3050
CC(C)c1ccccc1-c1nc(NS(=O)(=O)c2cccc(N)n2)ccc1Cl [Example 50, 6-amino-N-(5-chloro-6-(2-isopropylphenyl)pyridin-2-yl)pyridine-2-sulfonamide] | 332 | 683
Cc1ccc(C(F)(F)F)cc1-c1nc(NS(=O)(=O)c2cccc(N)n2)ccc1Cl [Example 51, 6-amino-N-(5-chloro-6-(2-methyl-5-(trifluoromethyl)phenyl)pyridin-2-yl)pyridine-2-sulfonamide] | 332 | 1980
Nc1cccc(S(=O)(=O)Nc2ccc(Cl)c(-c3c(Cl)cccc3C(F)(F)F)n2)n1 [Example 52, 6-amino-N-(5-chloro-6-(2-chloro-6-(trifluoromethyl)phenyl)pyridin-2-yl)pyridine-2-sulfonamide] | 327 | 1380
Cc1cccc(C(F)(F)F)c1-c1nc(NS(=O)(=O)c2cccc(N)n2)ccc1Cl [Example 53, 6-amino-N-(5-chloro-6-(2-methyl-6-(trifluoromethyl)phenyl)pyridin-2-yl)pyridine-2-sulfonamide] | 325 | 1840
Nc1ccc(S(=O)(=O)Nc2ccc(Cl)c(-c3ccccc3C3CC3)n2)cn1 [Example 54, 6-amino-N-(5-chloro-6-(2-cyclopropylphenyl)pyridin-2-yl)pyridine-3-sulfonamide] | 305 | 2350
Cc1ccc(F)c(-c2nc(NS(=O)(=O)c3cccc(N)n3)ccc2Cl)c1Cl [Example 58, 6-amino-N-(5-chloro-6-(2-chloro-6-fluoro-3-methylphenyl)pyridin-2-yl)pyridine-2-sulfonamide] | 270 | 1780
Nc1cccc(S(=O)(=O)Nc2ccc(Cl)c(-c3ccccc3OC(F)(F)F)n2)n1 [Example 59, 6-amino-N-(5-chloro-6-(2-(trifluoromethoxy)phenyl)pyridin-2-yl)pyridine-2-sulfonamide] | 258 | 1100
Cc1cccc(F)c1-c1nc(NS(=O)(=O)c2ccc(N)nc2)ccc1Cl [Example 60, 6-amino-N-(5-chloro-6-(2-fluoro-6-methylphenyl)pyridin-2-yl)pyridine-3-sulfonamide] | 253 | 2980
Cc1cc(NS(=O)(=O)c2cccc(N)n2)nc(-c2c(C)cccc2C)c1 [Example 63, 6-amino-N-(6-(2,6-dimethylphenyl)-4-methylpyridin-2-yl)pyridine-2-sulfonamide] | 226 | 2690
Cc1ccc(C#N)cc1-c1nc(NS(=O)(=O)c2ccnc(N)c2)ccc1C(F)(F)F [Example 64, 2-amino-N-(6-(5-cyano-2-methylphenyl)-5-(trifluoromethyl)pyridin-2-yl)pyridine-4-sulfonamide] | 223 | 1960
